Where a name gives a salt, the structure may show the parent alone.
Legend:
MELK = MELK (Homo sapiens, UniProt Q14680); assay: Kinase assay: MELK activity, phosphorylation of FITC-labeled histone H3 peptide measured by IMAP fluorescence polarization; format: biochemical; conditions: read-out: IC50 (μM) (kinase assay)
Summary of the method: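 FP readout: FITC-histone H3 peptide phosphorylation, read 0.5 h (RT) after stopping with 3x volume of IMAP progressive binding solution. Final DMSO 1%.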

T47D cells = assay: Cell-based assay: anti-proliferative activity, Cell Counting Kit-8, 72 hours (T47D); conditions: Homo sapiens, T47D, 72 h
Summary of the method: (§1)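 Cellular growth is read by CCK-8 colorimetric kit 72 h after inhibitor addition to seeded cells, and IC50 values are derived from the resulting data; MELK protein levels in these lines are checked beforehand by immunoblotting whole crude lysate.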

A549 cells = assay: Cell-based assay: anti-proliferative activity, Cell Counting Kit-8, 72 hours (A549); conditions: Homo sapiens, A549, 72 h, 72 hours
Experimental: 100 micro-L of cell suspension was seeded onto 96-well microtiter plate (ViewPlate-96FTC, PerkinElmer). The initial cell concentration of T47D, A549, BT-549, and HT-1197 were 3,000 cells/well, 2,000 cells/well and 2,500 cells/well, respectively. Cellular growth was determined using Cell Counting Kit-8 (DOJINDO) at 72 hours after the exposure of the candidate inhibitors. […] Accurate IC50 values were calculated as described previously.

HT-1197 cells = assay: Cell-based assay: anti-proliferative activity, Cell Counting Kit-8, 72 hours (HT-1197, negative control without MELK expression); conditions: Homo sapiens, HT1197, 72 h, HT1197 cells (negative control, no MELK expression), 72 hours
Summary of the method: as §1

DU4475 cells = assay: Cell-based assay: anti-proliferative activity, Cell Counting Kit-8, 72 hours (DU4475); conditions: Homo sapiens, DU-4475, 72 h

MELK, sequence (Q14680 whole entry, looked up): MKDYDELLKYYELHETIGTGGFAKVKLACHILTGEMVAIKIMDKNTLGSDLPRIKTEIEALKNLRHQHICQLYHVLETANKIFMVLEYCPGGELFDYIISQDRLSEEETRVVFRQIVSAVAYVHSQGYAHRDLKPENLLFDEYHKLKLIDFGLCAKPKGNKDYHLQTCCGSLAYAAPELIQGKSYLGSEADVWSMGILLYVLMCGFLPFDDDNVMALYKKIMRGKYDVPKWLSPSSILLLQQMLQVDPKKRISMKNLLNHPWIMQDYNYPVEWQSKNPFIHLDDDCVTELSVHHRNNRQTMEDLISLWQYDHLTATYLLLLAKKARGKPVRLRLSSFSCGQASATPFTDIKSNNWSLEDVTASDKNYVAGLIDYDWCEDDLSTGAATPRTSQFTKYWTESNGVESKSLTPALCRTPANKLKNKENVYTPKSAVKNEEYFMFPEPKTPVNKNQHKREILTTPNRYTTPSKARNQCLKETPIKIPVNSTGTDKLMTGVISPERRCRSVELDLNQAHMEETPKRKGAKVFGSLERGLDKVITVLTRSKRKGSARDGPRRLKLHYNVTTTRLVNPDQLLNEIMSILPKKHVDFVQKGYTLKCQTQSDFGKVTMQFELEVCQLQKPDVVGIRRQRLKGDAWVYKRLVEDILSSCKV

Structure (SMILES) | IC50 (MELK) [µM] | IC50 (T47D cells) [µM] | IC50 (A549 cells) [µM] | IC50 (HT-1197 cells) [µM] | IC50 (DU4475 cells) [µM]
O=C(c1cnc2ccc(-c3cc(Cl)c(O)c(Cl)c3)cc2c1Nc1ccc(CN2CCCC2)nc1)C1CC1 [Example 658, Cyclopropyl{6-(3,5-dichloro-4-hydroxyphenyl)-4-[6-(pyrrolidin-1-ylmethyl)pyridin-3-ylamino]quinolin-3-yl}methanone] | 0.0078 | 0.3 | 0.072 | 4.5 | 0.07
COc1cc(-c2ccc3ncc(C(C)=O)c(Nc4ccc(N5CCNCC5)nc4)c3c2)cc(Cl)c1O [Example 704, 1-(6-(3-chloro-4-hydroxy-5-methoxyphenyl)-4-(6-(piperazin-1-yl)pyridin-3-ylamino)quinolin-3-yl)ethanone hydrochloride] | 0.0023 | 0.17 | 0.2 | 2.1 | 0.12
O=C(c1cnc2ccc(-c3cc(F)c(O)c(Cl)c3)cc2c1N[C@H]1CC[C@H](CNCCF)CC1)C1CC1 [Example 701] | 0.003 | 0.29 | 0.41 | 0.98 | 0.38
CN(CCO)C[C@H]1CC[C@H](Nc2c(C(=O)C3CC3)cnc3ccc(-c4cc(F)c(O)c(Cl)c4)cc23)CC1 [Example 632, (6-(3-chloro-5-fluoro-4-hydroxyphenyl)-4-((trans-4-(((2-hydroxyethyl)(methyl)amino)methyl)cyclohexyl)amino)quinolin-3-yl)(cyclopropyl)methanone] | 0.0031 | 0.069 | 0.1 | 0.72 | 0.069
COc1cc(-c2ccc3ncc(C(=O)C4CC4)c(Nc4ccc(N5CCC(O)C5)nc4)c3c2)cc(Cl)c1O (stereo not drawn) [Example 669, (6-(3-chloro-4-hydroxy-5-methoxyphenyl)-4-(6-(3-hydroxypyrrolidin-1-yl)pyridin-3-ylamino)quinolin-3-yl)(cyclopropyl)methanone] | 0.012 | 0.24 | 0.46 | 4.4 | 0.75
COc1cc(-c2ccc3ncc(C(C)=O)c(Nc4ccc(CCN(C)C)cc4)c3c2)cc(Cl)c1O [Example 743, 1-(6-(3-chloro-4-hydroxy-5-methoxyphenyl)-4-(4-(2-(dimethylamino)ethyl)phenylamino)quinolin-3-yl)ethanone] | 0.0042 | 0.66 | 0.53 | 4.8 | 0.36
COc1cc(-c2ccc3ncc(C(C)=O)c(Nc4ccc(N5CCCC(N)C5)nc4)c3c2)cc(Cl)c1O (stereo not drawn) [Example 688, 1-(4-(6-(3-aminopiperidin-1-yl)pyridin-3-ylamino)-6-(3-chloro-4-hydroxy-5-methoxyphenyl)quinolin-3-yl)ethanone] | 0.0032 | 0.056 | 0.23 | 1.7 | 0.11
CCC(=O)c1cnc2ccc(-c3cc(Cl)c(O)c(Cl)c3)cc2c1Nc1ccc(N2CCN(C)CC2)nc1 [Example 737, 1-(6-(3,5-dichloro-4-hydroxyphenyl)-4-(6-(4-methylpiperazin-1-yl)pyridin-3-ylamino)quinolin-3-yl)propan-1-one] | 0.055 | 0.31 | 0.29 | 10 | 0.27
CCC(=O)c1cnc2ccc(-c3cc(Cl)c(O)c(OC)c3)cc2c1N[C@H]1CC[C@H](CN(C)C)CC1 [Example 713] | 0.0024 | 0.2 | 0.18 | 4.9 | 0.15
COc1cc(-c2ccc3ncc(C(=O)C4CC4)c(Nc4ccc(N5CCC(N(C)C)C5)nc4)c3c2)cc(Cl)c1O (stereo not drawn) [Example 689] | 0.013 | 0.28 | 1.5 | 9.4 | 3.2
CC(C)C(=O)c1cnc2ccc(-c3cc(Cl)c(O)c(Cl)c3)cc2c1Nc1ccc(CN(C)C)cc1 [Example 641, 1-(6-(3,5-dichloro-4-hydroxyphenyl)-4-(4-((dimethylamino)methyl)phenylamino)quinolin-3-yl)-2-methylpropan-1-one] | 0.0076 | 0.22 | 0.23 | 0.74 | 0.097
O=C(c1cnc2ccc(-c3cc(F)c(O)c(Cl)c3)cc2c1Nc1ccc(N2CCC(O)C2)nc1)C1CC1 (stereo not drawn) [Example 671, (6-(3-chloro-5-fluoro-4-hydroxyphenyl)-4-(6-(3-hydroxypyrrolidin-1-yl)pyridin-3-ylamino)quinolin-3-yl)(cyclopropyl)methanone] | 0.025 | 0.3 | 0.85 | 4.9 | 0.52
CC(=O)c1cnc2ccc(-c3cc(Cl)c(O)c(Cl)c3)cc2c1Nc1ccc(CN2CCN(C)CC2)cc1 [Example 654, 1-(6-(3,5-dichloro-4-hydroxyphenyl)-4-(4-((4-methylpiperazin-1-yl)methyl)phenylamino)quinolin-3-yl)ethanone] | 0.0082 | 0.091 | 0.19 | 8.7 | 0.11
O=C(c1cnc2ccc(-c3cc(F)c(O)c(Cl)c3)cc2c1NC1CCNCC1)C1CC1 [Example 719, (6-(3-chloro-5-fluoro-4-hydroxyphenyl)-4-(piperidin-4-ylamino)quinolin-3-yl)(cyclopropyl)methanone] | 0.0092 | 0.32 | 0.69 | 10 | 0.17
N[C@H]1CC[C@H](n2cc(Nc3c(C(=O)C4CC4)cnc4ccc(-c5cc(Cl)c(O)c(Cl)c5)cc34)cn2)CC1 [Example 706, (4-((1-(trans-4-aminocyclohexyl)-1H-pyrazol-4-yl)amino)-6-(3,5-dichloro-4-hydroxyphenyl)quinolin-3-yl)(cyclopropyl)methanone dihydrochloride] | 0.0011 | 0.042 | 0.59 | 7.9 | 0.02
COc1cc(-c2ccc3ncc(C(=O)C4CC4)c(Nc4ccc(N5CCC[C@@H](N)C5)nc4)c3c2)cc(Cl)c1O [Example 649, (R)-(4-(6-(3-aminopiperidin-1-yl)pyridin-3-ylamino)-6-(3-chloro-4-hydroxy-5-methoxyphenyl)quinolin-3-yl)(cyclopropyl)methanone] | 0.0021 | 0.087 | 0.15 | 1.4 | 0.077
CN(CCO)C[C@H]1CC[C@H](Nc2c(C(=O)C3CC3)cnc3ccc(-c4cc(Cl)c(O)c(Cl)c4)cc23)CC1 [Example 634] | 0.0008 | 0.099 | 0.095 | 0.75 | 0.042
CC(=O)c1cnc2ccc(-c3cc(F)c(O)c(Cl)c3)cc2c1N[C@H]1CC[C@H](CCN(C)C)CC1 [Example 741, 1-(6-(3-chloro-5-fluoro-4-hydroxyphenyl)-4-((trans-4-(2-(dimethylamino)ethyl)cyclohexyl)amino)quinolin-3-yl)ethanone] | 0.0048 | 0.037 | 0.085 | 2 | 0.062
COc1cc(-c2ccc3ncc(C(=O)C4CC4)c(Nc4ccc(CN5CCCC5)nc4)c3c2)cc(Cl)c1O [Example 659, (6-(3-chloro-4-hydroxy-5-methoxyphenyl)-4-(6-(pyrrolidin-1-ylmethyl)pyridin-3-ylamino)quinolin-3-yl)(cyclopropyl)methanone] | 0.013 | 0.6 | 0.32 | 7.3 | 0.28
O=C(c1cnc2ccc(-c3cc(Cl)c(O)c(Cl)c3)cc2c1Nc1ccc(N2CCC(O)C2)nc1)C1CC1 (stereo not drawn) [Example 670, cyclopropyl(6-(3,5-dichloro-4-hydroxyphenyl)-4-(6-(3-hydroxypyrrolidin-1-yl)pyridin-3-ylamino)quinolin-3-yl)methanone] | 0.0069 | 0.43 | 0.72 | 5.3 | 0.59
COc1cc(-c2ccc3ncc(C(=O)C4CC4)c(N[C@H]4CC[C@H](CN5CCC(N(C)C)C5)CC4)c3c2)cc(Cl)c1O (stereo partly drawn) [Example 668] | 0.0039 | 1 | 0.56 | 2.6 | 1.4
COC1CCN(C2CCC(Nc3c(C(=O)C4CC4)cnc4ccc(-c5cc(F)c(O)c(Cl)c5)cc34)CC2)C1 (stereo not drawn) [Example 686, (6-(3-chloro-5-fluoro-4-hydroxyphenyl)-4-(4-(3-methoxypyrrolidin-1-yl)cyclohexylamino)quinolin-3-yl)(cyclopropyl)methanone] | 0.0035 | 0.19 | 0.17 | 1.1 | 0.16
COc1cc(-c2ccc3ncc(C(=O)C4CC4)c(Nc4ccc(NC5CCNC5)nc4)c3c2)cc(Cl)c1O (stereo not drawn) [Example 665, (6-(3-chloro-4-hydroxy-5-methoxyphenyl)-4-(6-(pyrrolidin-3-ylamino)pyridin-3-ylamino)quinolin-3-yl)(cyclopropyl)methanone] | 0.0033 | 0.16 | 0.53 | 3.7 | 0.22
COc1cc(-c2ccc3ncc(C(=O)C4CC4)c(N[C@H]4CC[C@H](CN(C)CCO)CC4)c3c2)cc(Cl)c1O [Example 633] | 0.0016 | 0.21 | 0.12 | 2.3 | 0.15

Source: patent publication US9120749B2, “Quinoline derivatives and MELK inhibitors containing the same” (ONCOTHERAPY SCIENCE, INC., priority 2010, dated 2015)
